In PubChem BioAssay (NCI):
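Grown in 96-well plates, cells were treated for 48 hours with each compound at five concentrations. Insufficient inhibition: endpoint recorded as highest concentration tested. TGI denotes the concentration required for complete inhibition of growth.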

Columns and labels:
P388/ADR leukemia = experiment: NCI tumour cell line growth inhibition, 48 h
P388 leukemia = experiment: NCI tumour cell line growth inhibition, 48 h

**Q.** For `CSCC[C@@H](NC(=O)[C@H](CC(C)C)NC(=O)C(Cc1cnc[nH]1)NC(=O)CNC(=O)[C@@H](NC(=O)[C@H](C)NC(=O)[C@H](Cc1cn(C=O)c2ccccc12)NC(=O)[C@H](CCC(N)=O)NC(=O)[C@@H](N)CC(N)=O)C(C)C)C(N)=O` (some centres not stated), which TGI (P388/ADR leukemia) is on record?
**A.** Its TGI is > 100 µM.

**Q.** What about the TGI (P388 leukemia) of the same compound?
**A.** The TGI was > 100 µM.
